Results: patent publication US8952157B2, “Apoptosis-inducing agents for the treatment of cancer and immune and autoimmune diseases” (AbbVie Inc., priority 2008, dated 2015)

Molecular target: GST-Bcl-2 (Homo sapiens (Human), UniProt P10415)
Assay: Time Resolved-Fluorescence Resonance Energy Transfer (TR-FRET) Bcl-2 binding assay
Conditions: GST-Bcl-2 1 nM, F-Bak peptide probe 100 nM, Tb-anti-GST antibody 1 nM; Ki by Wang's equation
Experimental: Determination of the utility of compounds having Formula (I) as binders to and inhibitors of anti-apoptotic Bcl-2 proteins was performed using the Time Resolved-Fluorescence Resonance Energy Transfer (TR-FRET) Assay. Tb-anti-GST antibody was purchased from Invitrogen (Catalog No. PV4216).
(§1) Representative compounds were serially diluted in dimethyl sulfoxide (DMSO) starting at 50 μM (2× starting concentration; 10% DMSO) and 10 μL were transferred into a 384-well plate. The samples are then mixed on a shaker for 1 minute and incubated for an additional 3 hours at room temperature. For each assay, the probe/antibody and protein/probe/antibody were included on each assay plate as negative and positive controls, respectively. Fluorescence was measured on the Envision (Perkin Elmer) using a 340/35 nm excitation filter and 520/525 (F-Bak peptide) and 495/510 nm (Tb-labeled anti-Histidine antibody) emission filters.
as §1, with “The” for “Representative compounds were serially diluted in dimethyl sulfoxide (DMSO) starting at 50 μM (2× starting concentration; 10% DMSO) and 10 μL were transferred into a 384-well plate. The”, “were” for “are”
The inhibition constant (Ki) is the dissociation constant of an enzyme-inhibitor complex or a protein/small molecule complex, wherein the small molecule is inhibiting binding of one protein to another protein. So a large Ki value indicates a low binding affinity and a small Ki value indicates a high binding affinity.

Sequence of GST-Bcl-2 (P10415 whole entry): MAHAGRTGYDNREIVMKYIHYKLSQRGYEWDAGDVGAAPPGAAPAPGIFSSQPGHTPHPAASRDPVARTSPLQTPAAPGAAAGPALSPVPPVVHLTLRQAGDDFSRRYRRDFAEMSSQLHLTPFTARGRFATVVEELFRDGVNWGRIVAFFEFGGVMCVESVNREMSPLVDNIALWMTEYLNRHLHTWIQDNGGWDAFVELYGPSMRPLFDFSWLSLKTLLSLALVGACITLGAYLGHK

In order of rising Ki:
1. CC(C)N1CCC(Nc2ccc(S(=O)(=O)NC(=O)c3ccc(N4CCN(CC5=C(c6ccc(Cl)cc6)CC(C)(C)CC5)CC4)cc3Oc3ccccc3Cl)cc2[N+](=O)[O-])CC1 [Example 41, 2-(2-chlorophenoxy)-4-(4-((2-(4-chlorophenyl)-4,4-dimethylcyclohex-1-en-1-yl)methyl)piperazin-1-yl)-N-((4-((1-isopropylpiperidin-4-yl)amino)-3-nitrophenyl)sulfonyl)benzamide]  0.027 nM
2. CN1CCC(Nc2ccc(S(=O)(=O)NC(=O)c3ccc(N4CCN(CC5=C(c6ccc(Cl)cc6)CCCC5)CC4)cc3Oc3ccccc3Cl)cc2[N+](=O)[O-])CC1 [Example 43, 2-(2-chlorophenoxy)-4-(4-((2-(4-chlorophenyl)cyclohex-1-en-1-yl)methyl)piperazin-1-yl)-N-((4-((1-methylpiperidin-4-yl)amino)-3-nitrophenyl)sulfonyl)benzamide]  0.034 nM
3. Cc1n[nH]c2cccc(Oc3cc(N4CCN(CC5=C(c6ccc(Cl)cc6)CC(C)(C)CC5)CC4)ccc3C(=O)NS(=O)(=O)c3ccc(NCCCN4CCOCC4)c([N+](=O)[O-])c3)c12 [Example 44, 4-(4-((2-(4-chlorophenyl)-4,4-dimethylcyclohex-1-en-1-yl)methyl)piperazin-1-yl)-2-((3-methyl-1H-indazol-4-yl)oxy)-N-((4-((3-morpholin-4-ylpropyl)amino)-3-nitrophenyl)sulfonyl)benzamide]  0.036 nM
4. CN1CCC(Nc2ccc(S(=O)(=O)NC(=O)c3ccc(N4CCN(CC5=C(c6ccc(Cl)cc6)CC(C)(C)CC5)CC4)cc3Oc3cccc(F)c3F)cc2[N+](=O)[O-])CC1 [Example 45, 4-(4-((2-(4-chlorophenyl)-4,4-dimethylcyclohex-1-en-1-yl)methyl)piperazin-1-yl)-2-(2,3-difluorophenoxy)-N-((4-((1-methylpiperidin-4-yl)amino)-3-nitrophenyl)sulfonyl)benzamide]  0.047 nM
5. CN1CCC(Nc2ccc(S(=O)(=O)NC(=O)c3ccc(N4CCN(CC5=C(c6ccc(Cl)cc6)CC(C)(C)CC5)CC4)cc3Oc3cccc(Br)c3)cc2[N+](=O)[O-])CC1 [Example 46, 2-(3-bromophenoxy)-4-(4-((2-(4-chlorophenyl)-4,4-dimethylcyclohex-1-en-1-yl)methyl)piperazin-1-yl)-N-((4-((1-methylpiperidin-4-yl)amino)-3-nitrophenyl)sulfonyl)benzamide]  0.047 nM
6. CCN1CCC(Nc2ccc(S(=O)(=O)NC(=O)c3ccc(N4CCN(CC5=C(c6ccc(Cl)cc6)CC(C)(C)CC5)CC4)cc3Oc3ccccc3Cl)cc2[N+](=O)[O-])CC1 [Example 47, 2-(2-chlorophenoxy)-4-(4-((2-(4-chlorophenyl)-4,4-dimethylcyclohex-1-en-1-yl)methyl)piperazin-1-yl)-N-((4-((1-ethylpiperidin-4-yl)amino)-3-nitrophenyl)sulfonyl)benzamide]  0.05 nM
7. CN1C(C)(C)CC(Nc2ccc(S(=O)(=O)NC(=O)c3ccc(N4CCN(CC5=C(c6ccc(Cl)cc6)CC(C)(C)CC5)CC4)cc3Oc3ccccc3Cl)cc2[N+](=O)[O-])CC1(C)C [Example 48, 2-(2-chlorophenoxy)-4-(4-((2-(4-chlorophenyl)-4,4-dimethylcyclohex-1-en-1-yl)methyl)piperazin-1-yl)-N-((3-nitro-4-((1,2,2,6,6-pentamethylpiperidin-4-yl)amino)phenyl)sulfonyl)benzamide]  0.053 nM
8. CC1(C)CCC(CN2CCN(c3ccc(C(=O)NS(=O)(=O)c4ccc(NC5CCN(C6CCOCC6)CC5)c([N+](=O)[O-])c4)c(Oc4cccc(F)c4F)c3)CC2)=C(c2ccc(Cl)cc2)C1 [Example 49, 4-(4-((2-(4-chlorophenyl)-4,4-dimethylcyclohex-1-en-1-yl)methyl)piperazin-1-yl)-2-(2,3-difluorophenoxy)-N-((3-nitro-4-((1-tetrahydro-2H-pyran-4-ylpiperidin-4-yl)amino)phenyl)sulfonyl)benzamide]  0.062 nM
9. CN1CCC(Nc2ccc(S(=O)(=O)NC(=O)c3ccc(N4CCN(CC5=C(c6ccc(Cl)cc6)CC(C)(C)CC5)CC4)cc3Oc3cc(F)c4[nH]ccc4c3)cc2[N+](=O)[O-])CC1 [Example 50, 4-(4-((2-(4-chlorophenyl)-4,4-dimethylcyclohex-1-en-1-yl)methyl)piperazin-1-yl)-2-((7-fluoro-1H-indol-5-yl)oxy)-N-((4-((1-methylpiperidin-4-yl)amino)-3-nitrophenyl)sulfonyl)benzamide]  0.062 nM
10. CC1(C)CCC(CN2CCN(c3ccc(C(=O)NS(=O)(=O)c4ccc(NCCCN5CCOCC5)c([N+](=O)[O-])c4)c(Oc4cccc(F)c4F)c3)CC2)=C(c2ccc(Cl)cc2)C1 [Example 51, 4-(4-((2-(4-chlorophenyl)-4,4-dimethylcyclohex-1-en-1-yl)methyl)piperazin-1-yl)-2-(2,3-difluorophenoxy)-N-((4-((3-morpholin-4-ylpropyl)amino)-3-nitrophenyl)sulfonyl)benzamide]  0.066 nM
11. CC1(C)CCC(CN2CCN(c3ccc(C(=O)NS(=O)(=O)c4ccc(NCCCN5CCOCC5)c([N+](=O)[O-])c4)c(Oc4ccc(N)c(Cl)c4)c3)CC2)=C(c2ccc(Cl)cc2)C1 [Example 52, 2-(4-amino-3-chlorophenoxy)-4-(4-((2-(4-chlorophenyl)-4,4-dimethylcyclohex-1-en-1-yl)methyl)piperazin-1-yl)-N-((4-((3-morpholin-4-ylpropyl)amino)-3-nitrophenyl)sulfonyl)benzamide]  0.072 nM
12. O=C(NS(=O)(=O)c1ccc(NCC2CCOCC2)c([N+](=O)[O-])c1)c1ccc(N2CCN(Cc3cc(CCN4CCCC4)ccc3-c3ccc(Cl)cc3)CC2)cc1Oc1cccc(Cl)c1 [Example 53, 2-(3-chlorophenoxy)-4-(4-((4′-chloro-4-(2-pyrrolidin-1-ylethyl)-1,1′-biphenyl-2-yl)methyl)piperazin-1-yl)-N-((3-nitro-4-((tetrahydro-2H-pyran-4-ylmethyl)amino)phenyl)sulfonyl)benzamide]  0.077 nM
13. CN1CCC(Nc2ccc(S(=O)(=O)NC(=O)c3ccc(N4CCN(CC5=C(c6ccc(Cl)cc6)CC(C)(C)CC5)CC4)cc3Oc3cccc(Cl)c3Cl)cc2[N+](=O)[O-])CC1 [Example 54, 4-(4-((2-(4-chlorophenyl)-4,4-dimethylcyclohex-1-en-1-yl)methyl)piperazin-1-yl)-2-(2,3-dichlorophenoxy)-N-((4-((1-methylpiperidin-4-yl)amino)-3-nitrophenyl)sulfonyl)benzamide]  0.082 nM
14. Cc1n[nH]c2cccc(Oc3cc(N4CCN(CC5=C(c6ccc(Cl)cc6)CC(C)(C)CC5)CC4)ccc3C(=O)NS(=O)(=O)c3ccc(NC4CCN(C)CC4)c([N+](=O)[O-])c3)c12 [Example 55, 4-(4-((2-(4-chlorophenyl)-4,4-dimethylcyclohex-1-en-1-yl)methyl)piperazin-1-yl)-2-((3-methyl-1H-indazol-4-yl)oxy)-N-((4-((1-methylpiperidin-4-yl)amino)-3-nitrophenyl)sulfonyl)benzamide]  0.09 nM
15. CN1CCC(Nc2ccc(S(=O)(=O)NC(=O)c3ccc(N4CCN(CC5=C(c6ccc(Cl)cc6)CCCCC5)CC4)cc3Oc3ccccc3Cl)cc2[N+](=O)[O-])CC1 [Example 56, 2-(2-chlorophenoxy)-4-(4-((2-(4-chlorophenyl)cyclohept-1-en-1-yl)methyl)piperazin-1-yl)-N-((4-((1-methylpiperidin-4-yl)amino)-3-nitrophenyl)sulfonyl)benzamide]  0.106 nM
16. CN1CCC(Nc2ccc(S(=O)(=O)NC(=O)c3ccc(N4CCN(CC5=C(c6ccc(Cl)cc6)CC(C)(C)CC5)CC4)cc3Oc3cccc(C(F)(F)F)c3)cc2[N+](=O)[O-])CC1 [Example 57, 4-(4-((2-(4-chlorophenyl)-4,4-dimethylcyclohex-1-en-1-yl)methyl)piperazin-1-yl)-N-((4-((1-methylpiperidin-4-yl)amino)-3-nitrophenyl)sulfonyl)-2-(3-(trifluoromethyl)phenoxy)benzamide]  0.147 nM
17. CN(C)CCCNc1ccc(S(=O)(=O)NC(=O)c2ccc(N3CCN(Cc4ccccc4-c4ccc(Cl)cc4)CC3)cc2Oc2cccc3c2CCC(=O)N3)cc1[N+](=O)[O-] [Example 58, 4-(4-((4′-chloro-1,1′-biphenyl-2-yl)methyl)piperazin-1-yl)-N-((4-((3-(dimethylamino)propyl)amino)-3-nitrophenyl)sulfonyl)-2-((2-oxo-1,2,3,4-tetrahydroquinolin-5-yl)oxy)benzamide]  0.155 nM
18. CN1CCC(Nc2ccc(S(=O)(=O)NC(=O)c3ccc(N4CCN(CC5=C(c6ccc(Cl)cc6)CC(C)(C)CC5)CC4)cc3Oc3ccccc3Cl)cc2S(=O)(=O)C(F)(F)F)CC1 [Example 59, 2-(2-chlorophenoxy)-4-(4-((2-(4-chlorophenyl)-4,4-dimethylcyclohex-1-en-1-yl)methyl)piperazin-1-yl)-N-((4-((1-methylpiperidin-4-yl)amino)-3-((trifluoromethyl)sulfonyl)phenyl)sulfonyl)benzamide]  0.184 nM
